Measured values reported in PubChem BioAssay (NCI).
Where “and” joins values, the source holds several entries; their conditions need not be identical. Equal values may be shown once.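 Tested at 5 concentrations; 48 h exposure; 96-well plates; endpoints linearly interpolated, else capped at highest concentration. The concentration for 50% growth inhibition is given as GI50. The concentration for full growth arrest is given as TGI.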

How the values were obtained:
Experiment in all cases: NCI-60 cell line screen, 48 h
[1] = test system: MDA-MB-435
[2] = test system: MOLT-4 leukemia
[3] = test system: T-47D breast
[4] = test system: HCT-116 colon
[5] = test system: NCI-H23 lung
[6] = test system: OVCAR-5 ovarian
[7] = test system: UACC-257 melanoma
[8] = test system: HL-60(TB) leukemia
[9] = test system: SK-MEL-2 melanoma
[10] = test system: HCT-15 colon
[11] = test system: SR leukemia
[12] = test system: TK-10 renal
[13] = test system: CAKI-1 renal
[14] = test system: SK-OV-3 ovarian
[15] = test system: KM12 colon
[16] = test system: PC-3 prostate
[17] = test system: OVCAR-3 ovarian
[18] = test system: SNB-19 CNS
[19] = test system: HOP-62 NSCLC
[20] = test system: MALME-3M melanoma
[21] = test system: EKVX NSCLC
[22] = test system: HT29 colon
[23] = test system: CCRF-CEM leukemia
[24] = test system: UACC-62 melanoma
[25] = test system: M14 melanoma
[26] = test system: HCC-2998 colon
[27] = test system: SN12C renal
[28] = test system: RPMI-8226 leukemia
[29] = test system: K-562 leukemia
[30] = test system: ACHN renal
[31] = test system: SW-620 colon
[32] = test system: MDA-N
[33] = test system: NCI-H460 lung
[34] = test system: A498 renal
[35] = test system: MDA-MB-231 breast
[36] = test system: SNB-75 CNS
[37] = test system: IGROV1 ovarian
[38] = test system: OVCAR-4 ovarian
[39] = test system: NCI-H226 lung
[40] = test system: OVCAR-8 ovarian
[41] = test system: MCF7 breast
[42] = test system: SF-268 CNS
[43] = test system: NCI-H522 lung
[44] = test system: LOX IMVI melanoma
[45] = test system: HOP-92 NSCLC
[46] = test system: U251 CNS
[47] = test system: SF-295 CNS
[48] = test system: UO-31 renal
[49] = test system: RXF 393 renal
[50] = test system: COLO 205 colon
[51] = test system: HS 578T breast
[52] = test system: BT-549 breast
[53] = test system: 786-0 renal
[54] = test system: SF-539 CNS
[55] = test system: NCI/ADR-RES ovarian
[56] = test system: SK-MEL-28 melanoma
[57] = test system: DU-145 prostate
[58] = test system: SK-MEL-5 melanoma
[59] = test system: A549 NSCLC

Which TGI [1] does the source give for `N=c1c2c(ncn1N)Oc1c(c(-c3ccccc3)nn1-c1ccccc1)C2c1ccc(Cl)cc1` (configuration not stated) here?
The TGI was 3.46 µM.

What about the TGI [2] of the same compound?
Its TGI is > 100 µM.

What about the TGI [3] of the same compound?
Its TGI is 4.99 µM.

What about the TGI [4] of the same compound?
The TGI was 3.03 µM.

And the TGI [5]?
The TGI was 3.31 µM.

What about the TGI [6] of the same compound?
The TGI was 2.93 µM.

And the TGI [7]?
Its TGI is 3.71 µM.

And the TGI [8]?
Its TGI is > 100 µM.

And the TGI [9]?
Its TGI is 3.1 µM.

What about the TGI [10] of the same compound?
The TGI was 3.65 µM.

And the TGI [11]?
Its TGI is > 100 µM.

What about the TGI [12] of the same compound?
The TGI was 3.47 µM.

What about the TGI [13] of the same compound?
The TGI was 3.71 µM.

What about the TGI [14] of the same compound?
Its TGI is 3.37 µM.

And the TGI [15]?
The TGI was 2.99 µM.

And the TGI [16]?
Its TGI is 3.01 µM.

And the TGI [17]?
Its TGI is 3.11 µM.

And the TGI [18]?
The TGI was 2.86 µM.

What about the TGI [19] of the same compound?
The TGI was 3.02 µM.

What about the TGI [20] of the same compound?
Its TGI is 3.1 µM.

What about the TGI [21] of the same compound?
The TGI was 3.39 µM.

And the TGI [22]?
The TGI was 2.77 µM.

What about the TGI [23] of the same compound?
The TGI was > 100 µM.

And the TGI [24]?
Its TGI is 3.16 µM.

And the TGI [25]?
Its TGI is 3.18 µM.

And the TGI [26]?
Its TGI is 3.08 µM.

What about the TGI [27] of the same compound?
The TGI was 3.89 µM.

And the TGI [28]?
The TGI was > 100 µM.

And the TGI [29]?
Its TGI is > 100 µM.

What about the TGI [30] of the same compound?
Its TGI is 3.46 µM.

What about the TGI [31] of the same compound?
Its TGI is 4.5 µM.

What about the TGI [32] of the same compound?
The TGI was 3.86 µM.

And the TGI [33]?
Its TGI is 2.99 µM.

What about the TGI [34] of the same compound?
Its TGI is 4.32 µM.

What about the TGI [35] of the same compound?
The TGI was 5.21 µM.

And the TGI [36]?
The TGI was 2.83 µM.

And the TGI [37]?
The TGI was 2.8 µM.

And the TGI [38]?
Its TGI is 3.24 µM.

Which results are given for `CNC(=O)c1ccc(Nc2ncc(C(F)(F)F)c(NCc3nccnc3N(C)S(C)(=O)=O)n2)cc1`?
GI50 [39]: 1.26 µM and 2.71 µM and 3.28 µM; TGI [39]: 6.67 µM and 12 µM and 18.2 µM; GI50 [1]: 3.55 µM and 3.05 µM and 2.67 µM; TGI [1]: > 10 µM and 13.6 µM and 15.2 µM; GI50 [2]: 3.25 µM and 2.64 µM and 3.09 µM; TGI [2]: 9.97 µM and 8.58 µM and 8.76 µM; GI50 [40]: 3.44 µM and 3.69 µM and 3.83 µM; TGI [40]: > 10 µM and 13.6 µM and 18 µM; GI50 [41]: 1.79 µM and 2.16 µM and 1.88 µM; TGI [41]: > 10 µM and 9.76 µM and 11.4 µM; GI50 [3]: 3.47 µM and 3.46 µM and 2.9 µM; TGI [3]: > 10 µM and 12.5 µM and 10.4 µM; GI50 [4]: 2.08 µM and 2.4 µM and 1.71 µM; TGI [4]: > 10 µM and 10.5 µM and 15.1 µM; GI50 [5]: 2.61 µM and 2.38 µM and 2.81 µM; TGI [5]: 8.64 µM and 7 µM; GI50 [6]: 2.18 µM and 1.98 µM and 1.93 µM; TGI [6]: > 10 µM and 9.03 µM and 9.56 µM; GI50 [7]: 4.66 µM and 3.75 µM; TGI [7]: > 10 µM and 11.2 µM and 15.5 µM; GI50 [8]: 2.02 µM and 2.19 µM and 2.49 µM; TGI [8]: 8.1 µM and 6.09 µM and 7.7 µM; GI50 [9]: 0.783 µM and 1.32 µM and 1.6 µM; TGI [9]: 3.71 µM and 4.28 µM and 4.63 µM; GI50 [10]: 2.92 µM and 2.65 µM and 2.57 µM; TGI [10]: > 10 µM and 11.3 µM and 12.6 µM; GI50 [42]: 2.89 µM and 2.23 µM and 2.73 µM; TGI [42]: > 10 µM and 8.63 µM and 11 µM; GI50 [43]: 1.97 µM and 2.52 µM and 2.76 µM; TGI [43]: 7.06 µM and 13.3 µM and 7.4 µM; GI50 [44]: 2.1 µM and 2.06 µM and 2.02 µM; TGI [44]: > 10 µM and 8.03 µM and 8.91 µM; GI50 [11]: 1.91 µM and 1.33 µM and 2.39 µM; TGI [11]: 8.17 µM and 7.7 µM and 9.42 µM; GI50 [12]: 1.65 µM and 1.7 µM and 3.09 µM; TGI [12]: > 10 µM and 10.4 µM and 13.3 µM; TGI [45]: 2.37 µM and 6.54 µM and 6.4 µM; GI50 [13]: 1.8 µM and 1.41 µM and 1.88 µM; TGI [13]: > 10 µM and 8.35 µM and 12.1 µM; GI50 [46]: 3.29 µM and 3.18 µM and 2.88 µM; TGI [46]: > 10 µM and 12 µM and 13.6 µM; GI50 [47]: 3.04 µM and 2.6 µM and 2.61 µM; TGI [47]: > 10 µM and 10.9 µM and 12.9 µM; GI50 [14]: 3.16 µM and 2.27 µM and 2.41 µM; TGI [14]: > 10 µM and 9.35 µM and 11.4 µM; GI50 [15]: 0.383 µM and 0.309 µM and 0.307 µM; TGI [15]: > 10 µM and 6.33 µM and 11.3 µM; GI50 [48]: 1.03 µM and 1.94 µM and 2.14 µM; TGI [48]: 5.12 µM and 6.97 µM and 8.22 µM; GI50 [16]: 3.54 µM and 3.41 µM and 2.85 µM; TGI [16]: > 10 µM and 14.3 µM and 13.2 µM; GI50 [49]: 0.637 µM and 1.39 µM and 0.575 µM; TGI [49]: 2.74 µM and 3.76 µM and 2.85 µM; GI50 [17]: 3.16 µM and 2.26 µM and 2.71 µM; TGI [17]: > 10 µM and 8.43 µM and 12.8 µM; GI50 [50]: 1.32 µM and 1.37 µM and 1.39 µM; TGI [50]: 2.91 µM and 2.78 µM and 3.17 µM; GI50 [18]: 3.21 µM and 3.17 µM and 3.31 µM; TGI [18]: > 10 µM and 13.3 µM and 14.7 µM; GI50 [19]: 2.16 µM and 2.07 µM and 1.98 µM; TGI [19]: > 10 µM and 9.71 µM and 9.8 µM; GI50 [20]: 4.1 µM and 2.98 µM and 3.71 µM; TGI [20]: > 10 µM and 13.3 µM and 12.7 µM; GI50 [51]: 0.283 µM and 2.44 µM and 1.5 µM; TGI [51]: 7.19 µM and 9.3 µM and 8.29 µM; GI50 [21]: 2.49 µM and 2.64 µM; TGI [21]: > 10 µM and 10.8 µM; GI50 [52]: 2.98 µM and 2.06 µM and 2.14 µM; TGI [52]: > 10 µM and 7.41 µM and 9.73 µM; GI50 [22]: 3.41 µM and 2.75 µM and 3.21 µM; TGI [22]: > 10 µM and 8.63 µM and 11.3 µM; GI50 [23]: 3.27 µM and 3.21 µM and 3.36 µM; GI50 [24]: 1.76 µM and 1.66 µM and 1.63 µM; TGI [24]: > 10 µM and 4.37 µM and 4.24 µM; GI50 [53]: 2.17 µM and 1.98 µM and 2.01 µM; TGI [53]: > 10 µM and 11.6 µM and 18.3 µM; GI50 [54]: 1.86 µM and 1.99 µM and 1.82 µM; TGI [54]: 4.76 µM and 5.11 µM and 4.9 µM; GI50 [25]: 2 µM and 2.27 µM and 1.98 µM; TGI [25]: > 10 µM and 11.6 µM and 19 µM; GI50 [26]: 3.68 µM and 2.54 µM and 3.86 µM; TGI [26]: > 10 µM and 12.9 µM and 18 µM; GI50 [27]: 3.46 µM and 3.4 µM and 3.41 µM; TGI [27]: > 10 µM and 11.8 µM and 14.7 µM; GI50 [28]: 2.59 µM and 2.95 µM and 2.27 µM; TGI [28]: 6.9 µM and 8.16 µM and 7.58 µM; GI50 [29]: 4.84 µM and 3.2 µM and 3.42 µM; TGI [29]: > 10 µM and 17.7 µM and > 61.1 µM; GI50 [30]: 1.67 µM and 1.77 µM and 1.5 µM; TGI [30]: > 10 µM and 9.44 µM and 8.18 µM; GI50 [55]: 8.27 µM and 8.53 µM; TGI [55]: > 10 µM and 25.9 µM and 27.1 µM; GI50 [31]: 2.82 µM and 3.21 µM and 2.74 µM; TGI [31]: > 10 µM and 9.82 µM and 11.7 µM; GI50 [33]: 2.05 µM and 2.75 µM and 2.16 µM; TGI [33]: > 10 µM and 10.2 µM and 11.1 µM; GI50 [34]: 2.02 µM and 1.59 µM and 1.39 µM; TGI [34]: 5.61 µM and 3.89 µM and 4.18 µM; GI50 [35]: 2.55 µM and 3.12 µM and 2.6 µM; TGI [35]: > 10 µM and 11.9 µM; GI50 [36]: 1.52 µM and 1.41 µM; TGI [36]: 4.9 µM; GI50 [56]: 3.96 µM and 2.88 µM and 2.64 µM; TGI [56]: > 10 µM and 9.49 µM and 9.43 µM; GI50 [37]: 0.881 µM and 1.81 µM and 1.64 µM; TGI [37]: > 10 µM and 12 µM and 13.1 µM; GI50 [57]: 2.6 µM and 2.1 µM and 2.75 µM; TGI [57]: > 10 µM and 10.9 µM and 15.9 µM; GI50 [58]: 1.85 µM and 2.1 µM and 2.09 µM; TGI [58]: 4.59 µM and 4.55 µM and 5.49 µM; GI50 [38]: 5.37 µM and 2.41 µM and 1.9 µM; TGI [38]: > 10 µM and 12.8 µM and 10.5 µM; GI50 [59]: 2.79 µM and 2.94 µM and 3.13 µM; TGI [59]: > 10 µM and 8.79 µM and 12.1 µM
